Data set [1] can be described thus: Analyte composition of a subject after cannabis consumption (illustrative Table 2). The following applies: simplified data set to exemplify the method; for Analyte level, intoxicated state: 1 hr after consumption; for Analyte level, post-intoxicated state: 36 hr after consumption. It counts as in vivo, human. The text has this:
For example, which is not to be considered limiting, in a THC induced intoxicated sate, a subject may comprise the analyte composition presented in Table 1. It is to be understood that this table presents a simplified data set to exemplify the method described herein. Other analytes, which may include known analytes or ghost analytes, are indicated as analytes A, B . . . C; A′, B′, . . . C′; A″, B″ . . . C″. These other analytes may increase or decrease in response to, or that are correlated with, the physiological condition and they may be included in this analysis.
In this example, the result may be considered positive for a THC-induced intoxicated state if the Index is greater than a preset value which is determined based on an analysis of the analytes determined in subjects who were exposed to a control treatment, or a range of THC under controlled conditions, for example an Index value of (2+A)/(C+ . . . +C) may be an indication of a positive result for the state of THC-induced intoxication.

For data set [2] the following is noted: cited from earlier work.

Structures are written as SMILES.

For the molecule `CCCCCc1cc(O)c2c(c1)OC(C)(C)C1CCC(CO)=CC21` (stereo not shown) [11-OH-THC, 11-hydroxy THC], in data set [1], the “Analyte level, intoxicated state” value came out at 5 ng/mL and the “Analyte level, post-intoxicated state” value was found to be 2 ng/mL.

In the case of `CCCCCc1cc(O)c2c(c1)OC(C)(C)[C@@H]1CCC(C)=C[C@@H]21` [THC, delta-9-tetrahydrocannabinol], the “residual THC in serum” value in data set [2] (chronic users of marijuana, detected for 24 to 48 hours or longer, serum) was 1.0 to 6.4 ng/mL. The “residual THC in whole blood” value in data set [2] (chronic users of marijuana, detected for 24 to 48 hours or longer, whole blood) was 0.5 to 3.2 ng/mL. The “time of THC peak after inhaling” value in data set [2] (smoked marijuana) was “first few minutes”. In addition, in data set [2] (smoked marijuana, for 8 hours or more), the THC level remaining was 1 to 2 ng/mL. Moreover, in data set [1], the “Analyte level, intoxicated state” value was found to be 78 ng/mL and the “Analyte level, post-intoxicated state” value was 8 ng/mL.

As to `CCCCCc1cc(O)c2c(c1)OC(C)(C)[C@@H]1CCC(C(=O)O)=C[C@@H]21` [THC-COOH, 11-nor-9-carboxy-THC], in data set [1], the “Analyte level, intoxicated state” value was 5 ng/mL and the “Analyte level, post-intoxicated state” value was 11 ng/mL.

Source of the values: patent US20240130690A1, “NON-INVASIVE DETERMINATION OF A PHY[…] OF INTEREST IN A SUBJECT FROM SPECTRAL DATA PROCESSED USING A TRAINED MACHINE LEARNING MODEL” (ISBRG CORP., priority 2021, published 2024).
